Assay [1] has as its target T1, sensor 6 (ERα 312-595) (Homo sapiens, UniProt P03372).
T1 sequence (P03372 312-595): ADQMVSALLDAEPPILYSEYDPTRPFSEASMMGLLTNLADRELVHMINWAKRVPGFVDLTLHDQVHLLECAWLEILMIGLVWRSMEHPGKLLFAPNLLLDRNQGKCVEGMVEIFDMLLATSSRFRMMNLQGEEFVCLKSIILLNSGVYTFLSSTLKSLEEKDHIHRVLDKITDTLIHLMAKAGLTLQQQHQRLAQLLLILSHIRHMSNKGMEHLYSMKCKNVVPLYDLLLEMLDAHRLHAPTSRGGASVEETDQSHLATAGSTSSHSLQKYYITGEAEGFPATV
In words: split mVenus complementation, flow cytometry. The class given is cell-based. On the technique in general: In flow cytometry, cells or beads pass a laser one at a time.

Assay [2] addresses T1, sensor 6 (ERα 312-595). In words: split mVenus complementation, flow cytometry. The class given is cell-based. The settings on record: transfected HeLa cells, up to […] ligand, […] h.

The EC50 is the midpoint of the concentration-response curve. Consider `C[C@]12CC[C@@H]3c4cc(O)c(O)cc4CC[C@H]3[C@@H]1CC[C@@H]2O` [2-Hydroxyestradiol], for which, in assay [1], a half-maximal effect (EC50) was put at 0.55 ± 0.1 µM.

In assay [1], `C[C@]12CC[C@@H]3c4ccc(O)c(O)c4CC[C@H]3[C@@H]1CC[C@@H]2O` [4-Hydroxyestradiol] displayed an EC50 of 0.058 ± 0.0047 µM.

As to `C/C=C(/C(=C/C)c1ccc(O)cc1)c1ccc(O)cc1` [Dienestrol], the EC50 in assay [1] was 0.0044 ± 0.00087 µM.

On to `O=c1c(-c2ccc(O)cc2)coc2cc(O)ccc12` [daidzein], for which, in assay [2], the “split mVenus complementation, flow cytometry” value is listed as “both of which caused an increase in fluorescence at micromolar concentrations”.

`Clc1ccc(C(c2ccccc2Cl)C(Cl)(Cl)Cl)cc1` (centres unmarked) [o,p’-DDT]: the “split mVenus complementation, flow cytometry” value in assay [2] is “The pesticide o,p’-DDT, and a PCB compound also displayed activation beginning at micromolar levels”.

The values are drawn from publication PMC3210473 (Biotechnology and bioengineering, 2011).
